Source: patent US20090312411A1, “PREVENTING OR REDUCING RISK OF MISCARRIAGES” (New York Society for the Raptured and Crippled Maintaining …, priority 2008, published 2009)

Columns and labels:
TF = TF expression on peripheral blood monocytes, 2-color FACS; format: in vivo, mouse; details: CBA/J×DBA/2 mice, FIG. 17G
Experimental: Determining TF Expression. TF expression on peripheral blood monocytes was analyzed by 2-color fluorescence-activated cell sorting (FACS). Heparinized whole blood obtained at day 7 from DBA/2 or BALB/c mated CBA/J females was stained with fluorescein isothiocyanate (FITC)-labeled anti-mouse F4/80 for FL1 (BD Biosciences Pharmingen) to identify monocytes and biotinylated rat anti-mTF antibody 1H1 and streptavidin-PerCP (BD Biosciences Pharmingen) as the FL3 fluorochrome. Red cells were lysed with ACK buffer (Redecha et al., supra). Preparations were then incubated with SA-PerCP and analyzed by FACS using a FACscan (BD Biosciences Pharmingen).

sFlt-1 = assay: Plasma sFlt-1 (sVEGFR-1) ELISA in CBA/J×DBA/2 mice; format: in vivo, mouse; details: day 7 of pregnancy
Experimental: Protocol. To determine the effect of pravastatin treatment on pregnancy loss and oxidative stress, group of mice was treated with pravastatin (Sigma Chemicals, St Louis, Mo.; 5 μg/mouse, IP) from day 4 to 15 of pregnancy. Pravastatin was directly dissolved in sterile PBS. Blood samples were obtained from pregnant females from days 1 to 15 of pregnancy from the submandibular vein. Nitric oxide (NO) was measured by a […] method (R&D Systems). Plasma sVEGFR-1 was measured with a commercial ELISA kit (R&D Systems).

monocytes = assay: sFlt-1 release by monocytes in vitro (ELISA); format: cell-based, mouse; details: 10 nM C5a for 4 h; pravastatin 5 μg/ml for 3 hours prior to C5a
Experimental: Protocol. Mice with a selective deletion of the TF gene in myeloid cells (TF^floxed/floxed/LysM-Cre mice) (Redecha et al., supra), were used for isolation of monocytes to study sVEGFR-1 production in vitro. Blockade of TF was carried out as in Example 17 by i.p. injections of anti-mTF antibody 1H1.
Protocol. Splenocytes were prepared from non pregnant CBA/J female mice and incubated for 4 h in culture medium supplemented with 10% inactivated fetal bovine serum (FBS). Non adherent cells were removed and adherent cells (>95% peroxidase-positive) were incubated in culture medium with the addition of 10 nM mouse recombinant C5a. A group of adherent monocytes was treated for 3 hours with pravastatin (5 μg/ml) prior to incubation with C5a. After 4 h of incubation with C5a, culture supernatants were collected and analyzed for sVEGFR-1 by ELISA (R&D Systems).

CBA/J×DBA/2 mice [1] = assay: Fetal resorption frequency in CBA/J×DBA/2 matings (non aPL-dependent recurrent miscarriage); format: in vivo, mouse; details: day 15 of pregnancy, FIG. 7, 15A, 17A
Source text: Protocol. DBA/2-mated female CBA/J mice (CBA/J×DBA/2) are a well-studied model of immunologically mediated pregnancy loss that shares features with human recurrent miscarriage (Clark, D A et al., 1998, J. Immunol. 160:545-549; Blois, M. et al., 2005, J. Immunol. 174:1820-1829). Embryonic lethality in DBA/2-mated female CBA/J mice is believed to represent rejection of the semiallogeneic placenta by maternal-derived activated effectors. 8-10-wk-old virgin female CBA/J mice were mated with 8-14-wk-old CBA/J, BALB/c, or DBA/2 males. Females were inspected daily for vaginal plugs, and presence of a vaginal plug was designated as day 0 of pregnancy. A group of DBA/2- and BALB/c mated CBA/J females were treated with pravastatin (0.2 μg/g bw=5 μg/mouse, i.p) on days 5, 6 and 7 of pregnancy. […] Pregnant females were euthanized on day 15 and fetal resorption frequency was calculated.
Animals. Inbred CBA/J (H-2k), DBA/2 (H-2d) and BALB/c (H-2d) mice from The Jackson Laboratory were used. 8-10-wk-old virgin female CBA/J mice were mated with 8-14-wk-old BALB/c, or DBA/2 males. […] The frequency of fetal resorption was calculated on day 15 as previously described (Girardi et al., 2006, J Exp Med 203:2165-2175). Fetal weights were also determined. […]
(§1) Protocol. […] Nitric oxide (NO) was measured by a calorimetric method (R&D Systems). Plasma sVEGFR-1 was measured with a commercial ELISA kit (R&D Systems).

CBA/J×DBA/2 mice [2] = assay: Fetal weight / IUGR in CBA/J×DBA/2 matings; format: in vivo, mouse; details: day 15 of pregnancy, FIG. 10, 15B, 17B
Experimental: Protocol. 8-10-wk-old virgin female CBA/J mice were mated with 8-14-wk-old CBA/J, BALB/c, or DBA/2 males. Females were inspected daily for vaginal plugs, and presence of a vaginal plug was designated as day 0 of pregnancy. Pregnant mice were treated with pravastatin (0.2 μg/g bw=5 μg/mouse, i.p 18 hours prior to aPL or NHIgG injections on days 8 and 12). Pravastatin (Sigma Chemical, St Louis, Mo.) was dissolved in EtOH at a concentration of 10 mg/mL and diluted with NaCl 0.9% in a ratio of 1:1000 to yield a final concentration of 10 μg pravastatin per 1 mL carrier. The NaCl 0.9%-based carrier solution for the placebo group was prepared accordingly to include EtOH only (i.e., without pravastatin) at a concentration of 1:1000. Pregnant females were euthanized on day 15 and weights of fetuses were determined.
Animals. Inbred CBA/J (H-2k), DBA/2 (H-2d) and BALB/c (H-2d) mice from The Jackson Laboratory were used. 8-10-wk-old virgin female CBA/J mice were mated with 8-14-wk-old BALB/c, or DBA/2 males. Pregnant females were sacrificed at day 7 and at day 15. The frequency of fetal resorption was calculated on day 15 as previously described (Girardi et al., 2006, J Exp Med 203:2165-2175). Fetal weights were also determined. […]
as §1

[3] = test system: Isoprostane 8-iso-prostaglandin F2a (STAT-8); assay: Placental STAT-8 (8-isoprostane) EIA, oxidative stress marker; format: in vivo, mouse; details: CBA/J×DBA/2 mice, day 15 placentas, FIG. 16A
Experimental: STAT-8 Measurements. Isoprostane 8-iso-prostaglandin F2a (STAT-8) was measured as a marker for oxidative stress. Placental tissue was harvested at day 15 of pregnancy and homogenized in 9 volumes of 0.1 M Tris pH 7.4 containing 1 mM EDTA and 10 μM indomethacin and stored at −80° C. in the presence of 0.005% BHT before assayed for free 8-isoprostane using a STAT-8-Isoprostane EIA kit (Cayman Chemical Company, Ann Arbor, Mich.).

CBA/J×DBA/2 mice [4] = assay: Litter size at birth in CBA/J×DBA/2 matings; format: in vivo, mouse; details: CBA/J×DBA/2 mice followed until delivery; FIG. 15C, 17C
Experimental: Measuring Thrombin-Anti-Thrombin Complexes. Thrombin anti thrombin III complex (TAT) was measured using a commercial ELISA kit (Enzygnost TAT; Dade Behring). Some mice from each experimental group were studied until delivery and the litter sizes were recorded at birth.

Row | Compound | % TF positive monocytes (TF) [%] | plasma sFlt-1 levels (sFlt-1) [pg/mL] | sFlt-1 released by monocytes (monocytes) [pg/mL] | fetal resorption / fetal loss (CBA/J×DBA/2 mice [1]) | IUGR / growth restriction (fetal weight) (CBA/J×DBA/2 mice [2]) | placental STAT-8 increase [3] | litter size at birth (CBA/J×DBA/2 mice [4])
1 | CC[C@H](C)C(=O)O[C@H]1C[C@H](O)C=C2C=C[C@H](C)[C@H](CC[C@@H](O)C[C@@H](O)CC(=O)O)[C@H]21 [pravastatin] | 10±4 | 18650 ± 5680 | 387 ± 78 | – | – | – | –
2 | hirudin | – | – | – | prevented fetal resorptions | prevented fetal resorptions and growth restriction | prevented STAT-8 increase | increasing the litter size
